# Assay results as given in patent publication US10829452B2, “Histone methyltransferase inhibitors” (GLOBAL BLOOD THERAPEUTICS, INC., priority 2016, dated 2020).
# Where a name gives a salt, the structure may show the parent alone.
# Biological target: T1, G9a (Homo sapiens, UniProt Q96KQ7)
# T1 sequence (Q96KQ7 1-1210): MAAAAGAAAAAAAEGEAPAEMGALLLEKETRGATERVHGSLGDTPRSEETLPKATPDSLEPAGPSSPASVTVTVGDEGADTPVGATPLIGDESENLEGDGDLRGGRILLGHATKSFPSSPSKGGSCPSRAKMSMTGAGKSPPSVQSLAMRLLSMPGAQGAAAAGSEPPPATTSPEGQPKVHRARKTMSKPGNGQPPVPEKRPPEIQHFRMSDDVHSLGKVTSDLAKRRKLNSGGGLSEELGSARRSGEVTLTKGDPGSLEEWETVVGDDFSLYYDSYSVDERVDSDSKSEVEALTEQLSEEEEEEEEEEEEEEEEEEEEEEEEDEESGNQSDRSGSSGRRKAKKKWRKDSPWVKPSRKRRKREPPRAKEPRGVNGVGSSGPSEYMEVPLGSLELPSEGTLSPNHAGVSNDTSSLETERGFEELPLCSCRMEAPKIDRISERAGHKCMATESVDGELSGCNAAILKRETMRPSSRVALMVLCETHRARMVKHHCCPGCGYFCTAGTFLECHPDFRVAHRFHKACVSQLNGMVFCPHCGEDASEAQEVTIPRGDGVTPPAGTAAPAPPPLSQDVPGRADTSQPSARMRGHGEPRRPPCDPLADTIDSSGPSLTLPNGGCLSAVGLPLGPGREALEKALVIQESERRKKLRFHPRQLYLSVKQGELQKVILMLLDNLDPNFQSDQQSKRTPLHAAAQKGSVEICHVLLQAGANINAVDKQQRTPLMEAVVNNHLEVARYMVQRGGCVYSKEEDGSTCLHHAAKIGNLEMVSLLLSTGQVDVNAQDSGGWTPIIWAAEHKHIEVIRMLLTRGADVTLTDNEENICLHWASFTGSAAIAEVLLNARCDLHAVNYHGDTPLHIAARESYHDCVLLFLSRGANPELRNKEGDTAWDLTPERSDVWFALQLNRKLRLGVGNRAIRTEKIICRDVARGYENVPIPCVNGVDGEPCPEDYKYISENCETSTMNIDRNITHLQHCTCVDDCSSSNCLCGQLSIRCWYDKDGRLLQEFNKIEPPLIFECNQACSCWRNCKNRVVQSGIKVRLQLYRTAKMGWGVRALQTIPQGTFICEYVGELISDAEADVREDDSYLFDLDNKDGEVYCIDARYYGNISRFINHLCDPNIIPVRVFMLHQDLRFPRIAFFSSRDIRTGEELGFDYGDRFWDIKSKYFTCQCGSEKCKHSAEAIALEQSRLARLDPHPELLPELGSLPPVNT
# Experiment: G9a AlphaLISA enzymatic activity assay
# Type: biochemical
# Conditions: 0.15 nM G9a, 15 uM S-adenosyl-methionine, 100 nM biotinylated histone 3 peptide (1-21), 1 hour at room temperature; read-out: G9a in (uM) (IC50, concentration that produced 50% inhibition)
# Source text: The G9a AlphaLISA assay was used to detect the methyl modifications of a biotinylated histone H3 peptide by the compounds. These modifications are done by the histone methyl transferase activity of the G9a enzyme. The assay consists of reading a chemiluminescent signal at 615 nm; this signal is generated by a laser excitation at 680 nm that transfers a reactive singlet oxygen between the donor beads and acceptor beads. Donor beads are streptavidin conjugated and bind to the biotin on the peptide. Acceptor beads are conjugated with an antibody that recognizes the specific G9a methyl mark on the peptide. If there is a methyl mark on the peptide, the acceptor beads will bind to the peptide. Upon binding, the acceptor beads will be in close proximity (<200 nm) of the donor beads and when the donor beads are excited, the transfer of the oxygen can occur and a strong signal will be generated. If there is no methyl mark, the interaction between beads will not occur and signal will be at background levels.
# For the assay, the following buffer was used to set up reactions: 50 mM Tris-HCl pH9, 50 mM NaCl, 0.01% Tween-20 and 1 mM DTT (added fresh prior to starting the reactions). The assay is set up by adding a final concentration of 0.15 nM G9a, 15 uM S-adenosyl-methionine and, 100 nM biotinylated histone 3 peptide (1-21). The reaction is incubated at room temperature for 1 hour, and subsequently quenched by the addition of the acceptor beads (anti-H3k9me2 AlphaLISA acceptor beads, PerkinElmer # AL117) at a final concentration of 20 ug/mL. The acceptor beads are incubated for 1 hour. After 1 hour, the donor beads are added at a final concentration of 20 ug/mL (Alpha Streptavidin donor beads, PerkinElmer #6760002). Donor beads are incubated for 0.5 hours. Both donor and acceptor beads are resuspended in AlphaLISA 5X Epigenetics Buffer 1 Kit (PerkinElmer # AL008) prior to addition to the reaction. All manipulations and incubations with the donor and acceptor beads are done in subdued light. Signal is detected in an EnVision plate reader in Alpha mode (see ACS Med Chem Lett. 2014 Jan. 2; 5(2):205-9. doi: 10.1021/m1400496h. eCollection 2014. Discovery and development of potent and selective inhibitors of histone methyltransferase g9a.)
# Percent inhibition was calculated for each compound dilution and the concentration that produced 50% inhibition was calculated. This value is presented as the IC50.
row,IC50 [µM],Structure (SMILES)
1,0.006,"COc1cc2c3c(c(C4CCCC4)nc2cc1OCCCN1CCCC1)CC(C)(C)N3 [Example 113, 1-[3-({4-cyclopentyl-8-methoxy-2,2-dimethyl-1H,2H,3H-pyrrolo[3,2-c]quinolin-7-yl}oxy)propyl]pyrrolidine hydrochloride]"
2,0.17,"COc1cc2c3c(c(-c4ccccc4)nc2cc1OCCCN1CCCC1)CC(C)(C)N3 [Example 114, 1-[3-({8-methoxy-2,2-dimethyl-4-phenyl-1H,2H,3H-pyrrolo[3,2-c]quinolin-7-yl}oxy)propyl]pyrrolidine formate]"
3,0.047,"CC[C@@H](C)Nc1nc2cc(OCCCN3CCCC3)c(OC)cc2c2c1CCC2 [Example 100, N-[(2R)-butan-2-yl]-8-methoxy-7-[3-(pyrrolidin-1-yl)propoxy]-1H,2H,3H-cyclopenta[c]quinolin-4-amine formate]"
4,0.36,"COc1ccc(CNc2nc3cc(OCCCN4CCCC4)c(OC)cc3c3c2CC(C)(C)C3)c(OC)c1 [Example 117, N-[(2,4-dimethoxyphenyl)methyl]-8-methoxy-2,2-dimethyl-7-[3-(pyrrolidin-1-yl)propoxy]-1H,2H,3H-cyclopenta[c]quinolin-4-amine formate]"
5,0.027,"COc1cc2c3c(c(NCC(C)C)nc2cc1OCCCN1CCCC1)CCC3 [Example 103, 8-methoxy-N-(2-methylpropyl)-7-[3-(pyrrolidin-1-yl)propoxy]-1H,2H,3H-cyclopenta[c]quinolin-4-amine trifluoroacetate]"
6,0.02,"CCCNc1nc2cc(OCCCN3CCCC3)c(OC)cc2c2c1CCC2 [Example 104, 8-methoxy-N-propyl-7-[3-(pyrrolidin-1-yl)propoxy]-1H,2H,3H-cyclopenta[c]quinolin-4-amine trifluoroacetate]"
7,0.037,"COc1cc2c3c(c(NCC4CC4)nc2cc1OCCCN1CCCC1)CCC3 [Example 108, N-(cyclopropylmethyl)-8-methoxy-7-[3-(pyrrolidin-1-yl)propoxy]-1H,2H,3H-cyclopenta[c]quinolin-4-amine trifluoroacetate]"

# Second part, the compound before the results:
row,Structure (SMILES),IC50 [µM]
1,"CCNc1nc2cc(OCCCN3CCCC3)c(OC)cc2c2c1CC(C)(C)C2 [Example 74, N-ethyl-8-methoxy-2,2-dimethyl-7-[3-(pyrrolidin-1-yl)propoxy]-1H,2H,3H-cyclopenta[c]quinolin-4-amine formate]",0.015
2,"COc1cc2c(cc1OCCCN1CCCC1)nc(NC(C)C)c1cccnc12 [Example 52, 9-methoxy-N-(propan-2-yl)-8-[3-(pyrrolidin-1-yl)propoxy]benzo[h]1,6-naphthyridin-5-amine formate]",0.34
3,"COc1cc2c3c(c(N[C@H]4C[C@H](O)C4)nc2cc1OCCCN1CCCC1)CCC3 [Example 16, (1r,3r-3-({8-methoxy-7-[3-(pyrrolidin-1-yl)propoxy]-1H,2H,3H-cyclopenta[c]quinolin-4-yl}amino)cyclobutan-1-ol trifluoroacetate]",0.11
4,"COc1cc2c3c(c(N(C)C(C)C)nc2cc1OCCCN1CCCC1)CCC3 [Example 9, 8-methoxy-N-methyl-N-(propan-2-yl)-7-[3-(pyrrolidin-1-yl)propoxy]-1H,2H,3H-cyclopenta[c]quinolin-4-amine trifluoroacetate]",0.69
5,"COc1cc2c3c(cnc2cc1OCCCN1CCCC1)CCC3 [Example 21, 1-[3-({8-methoxy-1H,2H,3H-cyclopenta[c]quinolin-7-yl}oxy)propyl]pyrrolidine trifluoroacetate]",0.62
6,"COc1cc2c(cc1OCCCN1CCCC1)nc(O)n1nccc21 [Example 56, 9-methoxy-8-[3-(pyrrolidin-1-yl)propoxy]pyrazolo[1,5-c]quinazolin-5-ol formate]",0.46
7,"COc1cc2c3c(c(NCC(F)(F)F)nc2cc1OCCCN1CCCC1)CCCC3 [Example 67, 2-methoxy-3-[3-(pyrrolidin-1-yl)propoxy]-N-(2,2,2-trifluoroethyl)-7,8,9,10-tetrahydrophenanthridin-6-amine formate]",2
8,"COc1cc2c3c(c(NC(C)C)nc2cc1OCCCN1CCCC1)CN(C)CC3 [Example 71, 9-methoxy-3-methyl-N-(propan-2-yl)-8-[3-(pyrrolidin-1-yl)propoxy]-1H,2H,3H,4H-benzo[c]2,7-naphthyridin-5-amine formate]",1.1
9,"COc1cc2c3c(c(NC(C)C)nc2cc1OCCCN1CCCCC1)CCC3 [Example 85, 8-methoxy-7-[3-(piperidin-1-yl)propoxy]-N-(propan-2-yl)-1H,2H,3H-cyclopenta[c]quinolin-4-amine formate]",0.66
10,"CNc1nc2cc(OCCCN3CCCC3)c(OC)cc2c2c1COC2 [Example 59, 8-methoxy-N-methyl-7-[3-(pyrrolidin-1-yl)propoxy]-1H,3H-furo[3,4-c]quinolin-4-amine formate]",0.23
11,"COc1cc2c3c(c(NC(C)C)nc2cc1OCCCN1CCCC1)CCCC3 [Example 13, 2-methoxy-N-(propan-2-yl)-3-[3-(pyrrolidin-1-yl)propoxy]-7,8,9,10-tetrahydrophenanthridin-6-amine formate]",0.042
12,"COc1cc2c3c(c(NCCC(C)C)nc2cc1OCCCN1CCCC1)CC(C)(C)C3 [Example 87, 8-methoxy-2,2-dimethyl-N-(3-methylbutyl)-7-[3-(pyrrolidin-1-yl)propoxy]-1H,2H,3H-cyclopenta[c]quinolin-4-amine formate]",0.15
13,"CNc1nc2cc(OCCCN3CCCC3)c(OC)cc2c2c1CCC2 [Example 1, 8-methoxy-N-methyl-7-[3-(pyrrolidin-1-yl)propoxy]-1H,2H,3H-cyclopenta[c]quinolin-4-amine formate]",0.031
14,"COc1cc2c3c(c(C4CC4)nc2cc1OCCCN1CCCC1)CCC(C)N3 (stereo not drawn) [Example 32, 1-[3-({5-cyclopropyl-9-methoxy-2-methyl-1H,2H,3H,4H-benzo[h]1,6-naphthyridin-8-yl}oxy)propyl]pyrrolidine trifluoroacetate]",0.022
15,"COc1cc2c3c(c(NC(C)C)nc2cc1OCCCN1CCCC1)CCCN3 [Example 27, 9-methoxy-N-(propan-2-yl)-8-[3-(pyrrolidin-1-yl)propoxy]-1H,2H,3H,4H-benzo[h]1,6-naphthyridin-5-amine trifluoroacetate]",0.006
16,"COc1cc2c3c(c(NC(C)C)nc2cc1OCCCN1CCCC1)COC3 [Example 46, 8-methoxy-N-(propan-2-yl)-7-[3-(pyrrolidin-1-yl)propoxy]-1H,3H-furo[3,4-c]quinolin-4-amine]",0.26
17,"CC(C)Nc1nc2cc(OCCCN3CCCC3)c(O)cc2c2c1CCC2 [Example 84, 4-[(propan-2-yl)amino]-7-[3-(pyrrolidin-1-yl)propoxy]-1H,2H,3H-cyclopenta[c]quinolin-8-ol trifluoroacetate]",1.6
